Experimental findings from ChEMBL document CHEMBL2150979, “Xentrivalpeptides A-Q: depsipeptide diversification in Xenorhabdus” (J Nat Prod, 2012) are described below.

One data set concerns Saccharomyces cerevisiae. The experiment in a line: Antifungal activity against Saccharomyces cerevisiae. The class given is functional, organism-based.
Another data set has as its system Bacillus subtilis. In words: Antibacterial activity against Bacillus subtilis. The class given is functional, organism-based.
For data set [1], the system named is Staphylococcus epidermidis. The experiment in a line: Antibacterial activity against Staphylococcus epidermidis. The class given is functional, organism-based.
Another data set has as its system Micrococcus luteus. The experiment in a line: Antibacterial activity against Micrococcus luteus. It counts as functional, organism-based.
In another data set the test system is Pseudomonas aeruginosa. The experiment in a line: Antibacterial activity against Pseudomonas aeruginosa. The class given is functional, organism-based.
The next data set relates to Galleria mellonella. In words: Hemocyte cytotoxicity against Galleria mellonella larvae assessed as actin cytoskeletal ruffling at 100 ug/mL after 4 hrs. The conditions noted are these: in vivo. It counts as organism-based.
The subject of a further data set is HL-60. The experiment in a line: Cytotoxicity against human HL60 cells after 5 days by MTT assay. It counts as functional, cell-based. A general note: Tetrazolium assays rely on reduction of a dye to a coloured formazan, in cell work by metabolically active cells.
A further data set deals with Enterococcus faecalis. The experiment in a line: Antibacterial activity against Enterococcus faecalis. The class given is functional, organism-based.
For the next data set, the system named is Staphylococcus aureus. In words: Antibacterial activity against Staphylococcus aureus. It counts as functional, organism-based.
For a further data set, the system named is L929. The experiment in a line: Cytotoxicity against mouse L929 cells after 5 days by MTT assay. The class given is cell-based. The conditions noted are these: l929, 120 h.
The test system of another data set is Escherichia coli. The experiment in a line: Antibacterial activity against Escherichia coli. It counts as functional, organism-based.

Active and inactive are the calls of the source. No cut-off for these calls is given here.

For the compound `CC(C)[C@H](NC(=O)Cc1ccccc1)C(=O)N[C@@H]1C(=O)N[C@H](Cc2ccccc2)C(=O)N2CCC[C@H]2C(=O)N[C@@H](C(C)C)C(=O)N[C@@H](C(C)C)C(=O)N[C@@H](C(C)C)C(=O)O[C@@H]1C` [XENTRIVALPEPTIDE A], the outcome (with Saccharomyces cerevisiae; in the data set with Bacillus subtilis; in data set [1]; in the data set with Micrococcus luteus; in the data set on Pseudomonas aeruginosa; with HL-60) was inactive. The result in the data set with Enterococcus faecalis, with Staphylococcus aureus and in the data set on Escherichia coli was inactive. Besides, the Activity entry in the data set with Galleria mellonella is reported as “Toxic”; in the data set with L929, “Non-toxic”.
